Converted amounts (≈) assume the structure as drawn. Bridge positions count the residues as written; N and C are the ends. Square brackets hold non-standard residues; d marks the D form. Peptide text beside a SMILES is read from it.

Assay [1] has as its system C. albicans. The assay can be described thus: Candidacidal activity, minimum fungicidal concentration. The assay is classed as cell-based. Particulars: minimum fungicidal concentration = no viable colonies; 10^6 cells/ml in 10 mM phosphate buffer pH 7.4, 2 h at 30°C, plated 24 h; average of three independent experiments in duplicate. As to the method: Minimum fungicidal concentrations (MFC) of the peptides were determined by growing C. albicans aerobically in yeast extract-peptone-dextrose (YEPD) medium at 30°C. After 20 h, 0.5 ml from this suspension was subcultured for 2 h in 20 ml of YEPD broth to obtain a mid-log-phase culture. Cells were harvested by centrifugation, washed with 10 mM phosphate buffer (PB), pH 7.4, and resuspended in the same buffer, and the concentration was adjusted to 10^6 cells/ml. Aliquots of diluted cells were incubated with peptides in 100 µl volume at 30°C for 2 h. Cell suspensions were diluted and spread on YEPD agar plates and the plates were incubated for 24 h at 30°C. Colonies were counted, and the concentrations of the peptides at which no viable colonies were formed were taken as the Minimum fungicidal concentration (MFC). Cell survival was expressed as a percentage of the control. Percentage killing was calculated as [(colonies from control cells- colonies from treated cells)/colonies from control cells x 100].
The average of results from three independent experiments done with duplicate samples was taken for the calculation of MFC. In control experiments, cells were incubated with only buffer.

In assay [2] the test system is E. coli (MG 1655). Nature of the assay: Antibacterial activity, lethal concentration (colony count). The class given is cell-based, Escherichia coli. Particulars: lethal concentration = no viable colonies; 10^6 cfu/ml in 10 mM sodium phosphate buffer pH 7.4, 2 h at 37°C, plated 18 h; average of three independent experiments in duplicate, variation <5%. As to the method:
(§1) Bacterial strains used were E. coli (MG 1655), S. aureus (ATCC 8530), and P. aeruginosa (NCTC 6751). The antibacterial activity of the peptides was examined in sterile 96 well plates at a ﬁnal volume of 100 µl as follows: Bacteria were grown in nutrient broth (Bacto Difco nutrient broth) to mid-log phase and diluted to 10^6 colony forming units (cfu)/ml in 10 mM sodium phosphate buffer (pH 7.4). Bacteria were incubated with different concentration of peptides for 2 h at 37°C and suitably diluted aliquots were spread on nutrient agar plates. After the plates were incubated at 37°C for 18 h, colonies formed were counted. Lethal concentration (LC) is the concentration of the peptides at which no viable colonies were formed. Cell survival is expressed as a percentage of the control. Percentage killing was calculated as: [(colonies from control cells- colonies from treated cells)/colonies from control cells x 100]. The LC determined was average of three independent experiments done in duplicate. In control experiments, cells were incubated with only buffer.

Assay [3] deals with P. aeruginosa (NCTC 6751). The description is as above. The assay is classed as cell-based. Particulars: lethal concentration = no viable colonies; 10^6 cfu/ml in 10 mM sodium phosphate buffer pH 7.4, 2 h at 37°C, plated 18 h; average of three independent experiments in duplicate, variation <5%. As to the method:
as §1

For assay [4], the system named is S. aureus (ATCC 8530). Described as above. The class given is cell-based. Conditions: lethal concentration = no viable colonies; 10^6 cfu/ml in 10 mM sodium phosphate buffer pH 7.4, 2 h at 37°C, plated 18 h; average of three independent experiments in duplicate, variation <5%. The protocol:
as §1

The subject of assay [5] is Gram-negative bacteria. The assay can be described thus: Effect of divalent cations on antibacterial activity at LC. The assay is classed as cell-based. Conditions: peptide at its LC; for Antibacterial activity in the presence of 1 mM Ca2+, Gram-negative bacteria: 1 mM CaCl2 in buffer. As to the method:
(§2) To determine the effect of salt on antibacterial activity, different concentrations of NaCl was included in the incubation buffer at their LC. Different concentrations of divalent cations Ca^2+ and Mg^2+ (as their chloride salts), were included in the buffer to determine their effect on activity at lethal concentration (LC) of the peptides. In control experiments, cells were incubated with only buffer. Data are presented as mean ± standard deviation computed for three independent replicates.
(§3) Figure 2 Effect of divalent cations on antibacterial activity. Mid-log phase bacteria (10^6 CFU/mL) were incubated with peptides at their LC in the absence or presence of the indicated concentrations of CaCl2 and MgCl2. The data are mean values of three independent experiments and the error bars represent standard deviation of the measurements. Standard deviation values ranged between 0.2-2.7.

In assay [6] the test system is P. aeruginosa. Described as above. The assay is classed as cell-based. Particulars: peptide at its LC; for Loss in activity at 5 mM Mg2+ against P. aeruginosa: 5 mM MgCl2, as compared to HC-1(R). As to the method:
as §2, §3

For assay [7], the system named is bacteria. Nature of the assay: Antibacterial activity, comparison of peptides. The class given is cell-based. Conditions: from LC values. As to the method: as §1
Assay [8] concerns S. aureus. The assay can be described thus: Effect of divalent cations on antibacterial activity at LC. Particulars: peptide at its LC, 1 mM CaCl2. The assay is classed as cell-based. The protocol:
as §2, §3

`CC[C@H](C)[C@@H]1NC(=O)[C@H](CCCCN)NC(=O)[C@H]([C@@H](C)O)NC(=O)[C@H](Cc2ccccc2)NC(=O)[C@H]([C@@H](C)CC)NC(=O)[C@@H]2CCCN2C(=O)[C@@H](NC(=O)[C@H](C)N)CSSC[C@@H](C(=O)N[C@@H](CCCNC(=N)N)C(=O)O)NC(=O)[C@H](CCCCN)NC(=O)[C@H](C)NC(=O)[C@H](CCCNC(=N)N)NC(=O)CNC(=O)[C@H](CCCNC(=N)N)NC(=O)[C@H](Cc2ccc(O)cc2)NC(=O)[C@H]([C@@H](C)O)NC(=O)CNC(=O)[C@H](CCC(N)=O)NC1=O` [HC-1(R)] (H-ACPIFTKIQGTYRGRAKCR-OH; disulfide 2-18): the “MFC C. albicans” value in assay [1] is listed as 2.5 µM (≈ 5.42 µg/mL).
For the compound `CC[C@@H](C)[C@H]1NC(=O)[C@H](CCC(N)=O)NC(=O)[C@H](CCC(=O)O)NC(=O)[C@H](CCC(=O)O)NC(=O)[C@H](CCCCN)NC(=O)[C@@H]2CCCN2C(=O)[C@H](CC(C)C)NC(=O)[C@@H](NC(=O)[C@@H](N)CO)CSSC[C@@H](C(=O)N[C@H](CCCNC(=N)N)C(=O)N[C@H](CCCNC(=N)N)C(=O)N[C@@H](CCCCN)C(=O)N[C@@H](CCCNC(=N)N)C(=O)O)NC(=O)[C@H](CCCCN)NC(=O)[C@@H](CCCNC(=N)N)NC(=O)CNC(=O)[C@@H](CCCNC(=N)N)NC(=O)[C@H]([C@@H](C)O)NC(=O)[C@H](CO)NC(=O)[C@H](CCCCN)NC(=O)CNC1=O` [[D]HC-3(R)] (H-SCLPKEEQ[dI]GKST[dR]G[dR]KC[dR][dR]KR-OH; disulfide 2-18; N-terminus assumed), in assay [2], the “LC E. coli” value worked out at 2.5 µM. Besides, the “LC P. aeruginosa” value in assay [3] amounted to 2.5 µM. In addition, the “LC S. aureus” value in assay [4] was found to be 2.5 µM. Moreover, the “MFC C. albicans” value in assay [1] was 2.5 µM (≈ 6.54 µg/mL). Further, in assay [5], the “Antibacterial activity in the presence of 1 mM Ca2+, Gram-negative bacteria” value is recorded as “loss in activity is observed”. Also, the “Antibacterial activity in the presence of 5 mM Ca2+, Gram-negative bacteria” value in assay [5] (5 mM CaCl2 in buffer) is given as “further attenuated”. Also, in assay [6] (5 mM CaCl2, as compared to [D]HC-1(R)), the “Loss in activity at 5 mM Ca2+ against P. aeruginosa” value was “more pronounced”. Moreover, the “Loss in activity at 5 mM Mg2+ against P. aeruginosa” value in assay [6] is on record as “more”. Besides, the “Fold more active against bacteria as compared to HC-1(R) and [D]HC-1(R)” value in assay [7] was 2 fold.
With `CC[C@@H](C)[C@H]1NC(=O)[C@H](CCCCN)NC(=O)[C@H]([C@@H](C)O)NC(=O)[C@H](Cc2ccccc2)NC(=O)[C@@H]([C@H](C)CC)NC(=O)[C@@H]2CCCN2C(=O)[C@@H](NC(=O)[C@H](C)N)CSSC[C@@H](C(=O)N[C@@H](CCCNC(=N)N)C(=O)O)NC(=O)[C@H](CCCCN)NC(=O)[C@H](C)NC(=O)[C@@H](CCCNC(=N)N)NC(=O)CNC(=O)[C@@H](CCCNC(=N)N)NC(=O)[C@H](Cc2ccc(O)cc2)NC(=O)[C@H]([C@@H](C)O)NC(=O)CNC(=O)[C@H](CCC(N)=O)NC1=O` [[D]HC-1(R)] (H-ACP[dI]FTK[dI]QGTY[dR]G[dR]AKCR-OH; disulfide 2-18; N-terminus assumed), the “LC E. coli” value in assay [2] is 5 µM. Moreover, in assay [3], the “LC P. aeruginosa” value is 5 µM. The “LC S. aureus” value in assay [4] is on record as 5 µM. Moreover, the “MFC C. albicans” value in assay [1] is 5 µM (≈ 10.8 µg/mL). The “Antibacterial activity in the presence of 1 mM Ca2+, Gram-negative bacteria” value in assay [5] was “is not attenuated”. Moreover, the “Loss in activity at 5 mM Mg2+ against P. aeruginosa” value in assay [6] was “more”. Moreover, in assay [8], the “Loss in activity against S. aureus at 1 mM Ca2+” value is “not”.

The values above are taken from PMC3785448, “Effect of Selectively Introducing Arginine and D-Amino Acids on the Antimicrobial Activity and Salt Sensitivity in Analogs of Human Beta-Defensins” (PLoS ONE, 2013).
